In paper PMC12218520, “Oxyresveratrol suppressed melanogenesis, dendrite formation, and melanosome transport in melanocytes via regulation of the MC1R/cAMP/MITF pathway” (Scientific Reports, 2025):
Read-outs that look alike come from different tables or passages of the source.

Experiments:
human tyrosinase [1] = target: T1, human tyrosinase (Homo sapiens, UniProt P14679); test: substrate of the tyrosinase assay ([…]), absorbance at […] nm; format: biochemical
T1 construct: gene TYR; recombinant human tyrosinase (OriGene TP321797L)
T1 sequence (P14679 19-529): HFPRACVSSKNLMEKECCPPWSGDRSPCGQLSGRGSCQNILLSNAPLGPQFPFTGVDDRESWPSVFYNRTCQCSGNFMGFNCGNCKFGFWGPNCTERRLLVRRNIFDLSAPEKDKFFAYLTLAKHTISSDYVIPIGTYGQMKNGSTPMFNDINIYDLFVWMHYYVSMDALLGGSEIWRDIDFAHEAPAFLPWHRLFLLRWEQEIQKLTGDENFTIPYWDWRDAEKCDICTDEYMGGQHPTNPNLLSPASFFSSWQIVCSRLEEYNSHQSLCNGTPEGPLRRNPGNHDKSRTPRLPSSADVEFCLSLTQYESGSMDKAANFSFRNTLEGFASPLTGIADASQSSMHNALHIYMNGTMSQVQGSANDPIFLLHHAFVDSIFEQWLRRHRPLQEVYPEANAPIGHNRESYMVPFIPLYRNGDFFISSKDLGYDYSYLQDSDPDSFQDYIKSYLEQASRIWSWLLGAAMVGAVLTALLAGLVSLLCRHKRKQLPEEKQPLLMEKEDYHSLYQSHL

human tyrosinase [2] = target: T1, human tyrosinase; test: L-DOPA oxidation assay with recombinant human tyrosinase, absorbance at […] nm; format: biochemical

Compound: N[C@@H](Cc1ccc(O)c(O)c1)C(=O)O [L-DOPA]
- substrate of the tyrosinase assay (0.5 mM), absorbance at 492 nm (human tyrosinase [1]): Inhibition of human tyrosinase activity by oxyresveratrol, resveratrol, phenylethyl resorcinol, and glabridin in vitro, using L-DOPA as substrate.

Compound: Oc1ccc(/C=C/c2cc(O)cc(O)c2)cc1 [compound 2, Resveratrol]
- IC50 (human tyrosinase [2]): 57.2 µM

Compound: CC(c1ccccc1)c1ccc(O)cc1O (stereo not drawn) [compound 3, Phenylethyl resorcinol]
- IC50 (human tyrosinase [2]; read-out: IC50 (μg/mL) (converted)): 88.5 µM
